From PMC6445163, “Design, synthesis, and evaluation of novel 2-phenylpropionic acid derivatives as dual COX inhibitory-antibacterial agents” (Journal of Enzyme Inhibition and Medicinal Chemistry, 2017) come the findings set out here.

Converted amounts (≈) assume the structure as drawn.

Data set [1] has as its system Candida krusei (ATCC 6258). Kind of data set: broth dilution MIC (EUCAST EDef 7.1), resazurin. In kind it is cell-based. The settings on record: Pichia kudriavzevii, ATCC6258, 24 h. The protocol:
(§1) Microbiological studies were performed according to following guides: CLSI reference […]-A9 broth microdilution method[49] for bacterial strains and EUCAST definitive (EDef 7.1) method[50] for Candida species. Synthesized compounds were tested for their in vitro growth inhibitory activity against Staphylococcus aureus (ATCC 25923), Enterococcus faecalis (ATCC 29212), Listeria monocytogenes (ATCC 1911), Klebsiella pneumoniae (NCTC 9633), Escherichia coli (ATCC 35218), E. coli (ATCC 25922) Candida albicans (ATCC 24433) Candida krusei (ATCC 6258) and Candida parapsilosis (ATCC 22019). Chloramphenicol and ketoconazole were used as control drugs. The cultures were obtained from the Mueller-Hinton broth (Difco) for the bacterial strains after overnight incubation at 37 °C. The yeasts were maintained in Roswell Park Memorial Institute (RPMI) after overnight incubation at 37 °C. […] Testing was carried out in Mueller-Hinton broth and RPMI at pH =7, and the two-fold serial dilutions technique was applied. The last well on the microplates containing only inoculated broth was kept as controls and the last well with no growth of microorganism was recorded to represent the minimum inhibitory concentration (MIC) expressed in μg/mL. For both the antibacterial and antifungal assays, the compounds were dissolved in DMSO. […] The completed plates were incubated for 24 h. At the end of the incubation, resazurin (20 μg/mL) was added into each well and plates were incubated for 2 h. MIC values were determined using a microplate reader at […]. Synthesized compounds (6a-6m) were evaluated for antimicrobial activity against various microorganisms such as Staphylococcus aureus (ATCC 25923), Enterococcus faecalis (ATCC 29212), Listeria monocytogenes (ATCC 1911), Klebsiella pneumoniae (NCTC 9633), Escherichia coli (ATCC 35218), E. coli (ATCC 25922)Candida albicans (ATCC 24433) Candida krusei (ATCC 6258) and Candida parapsilosis (ATCC 22019). […] Chloramphenicol and ketoconazole were used as standard drugs in the activity test. […] Besides, the compounds 6d, 6h, 6l and 6m indicated stronger antibacterial activity than the other compounds in the series.

Data set [2] concerns Candida albicans (ATCC 24433). Kind of data set: broth dilution MIC (EUCAST EDef 7.1), resazurin. Format: cell-based. The following applies: ATCC24433, 24 h. The protocol:
as §1
A general note: Dilution methods test growth across graded concentrations, often in twofold steps.

Data set [3] has as its system Candida parapsilosis (ATCC 22019). Kind of data set: broth dilution MIC (EUCAST EDef 7.1), resazurin. In kind it is cell-based. The settings on record: ATCC22019, 24 h. The protocol:
as §1

For another data set, the target named is T1, COX-1 (Ovis aries, UniProt P05979).
T1 construct: purchased Biovision K548-100
T1 sequence (P05979 25-600): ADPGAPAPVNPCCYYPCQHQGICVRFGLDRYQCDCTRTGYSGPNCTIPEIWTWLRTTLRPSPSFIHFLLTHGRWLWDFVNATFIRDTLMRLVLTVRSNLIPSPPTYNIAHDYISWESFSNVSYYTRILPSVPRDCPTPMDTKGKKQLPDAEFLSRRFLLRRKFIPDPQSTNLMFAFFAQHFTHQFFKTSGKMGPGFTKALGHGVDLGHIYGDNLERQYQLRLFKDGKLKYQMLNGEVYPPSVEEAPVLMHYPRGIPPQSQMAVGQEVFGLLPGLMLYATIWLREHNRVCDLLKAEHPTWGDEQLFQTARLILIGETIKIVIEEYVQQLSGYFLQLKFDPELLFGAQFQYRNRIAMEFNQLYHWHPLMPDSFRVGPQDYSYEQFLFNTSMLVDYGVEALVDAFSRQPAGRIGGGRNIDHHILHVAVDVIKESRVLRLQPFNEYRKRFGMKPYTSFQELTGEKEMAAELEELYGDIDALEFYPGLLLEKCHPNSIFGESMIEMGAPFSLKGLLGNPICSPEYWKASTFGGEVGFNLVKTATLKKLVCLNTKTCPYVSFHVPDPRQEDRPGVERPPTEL
The data set can be described thus: enzyme kinetics (Lineweaver-Burk), arachidonic acid substrate. In kind it is biochemical. The following applies: for mode of inhibition: Lineweaver-Burk plot analysis; for Ki: secondary plot of slope versus inhibitor concentration, read-out: Ki (steady-state inhibition constant). As to the method: The mode of inhibition was determined by following the Lineweaver–Burk double reciprocal plot analysis of the data and calculated as per the Michaelis–Menten kinetics. To understand the possible mode of action, Km and Vmax were also calculated. The slopes of the Lineweaver–Burk plots were plotted versus the inhibitor concentration, and the Ki values were determined from the x-axis intercept as inhibition constant − Ki. […] The kinetic parameters of this study were determined based on Michaelis–Menten equation followed by a Lineweaver–Burk double reciprocal analysis of data set regarding […] versus 1/[S] plot.

Data set [4] has as its system Enterococcus faecalis (ATCC 29212). The data set can be described thus: broth microdilution MIC (CLSI M07-A9), resazurin. Format: cell-based. The settings on record: ATCC29212, 24 h. As to the method:
as §1

In data set [5] the test system is Listeria monocytogenes (ATCC 1911). Kind of data set: broth microdilution MIC (CLSI M07-A9), resazurin. In kind it is cell-based. The following applies: ATCC1911, 24 h. The protocol:
as §1

Data set [6] relates to Staphylococcus aureus (ATCC 25923). Kind of data set: broth microdilution MIC (CLSI M07-A9), resazurin. Format: cell-based. The following applies: ATCC25923, 24 h. The protocol:
as §1

Data set [7] relates to Escherichia coli (ATCC 25922). The data set can be described thus: broth microdilution MIC (CLSI M07-A9), resazurin. Format: cell-based. The settings on record: ATCC25922, 24 h, read-out: MIC Ec-2. As to the method:
as §1

Data set [8] concerns Escherichia coli (ATCC 35218). The data set can be described thus: broth microdilution MIC (CLSI M07-A9), resazurin. Format: cell-based. The following applies: ATCC35218, 24 h, read-out: MIC Ec-1. As to the method: as §1
The test system of data set [9] is Klebsiella pneumoniae (NCTC 9633). Kind of data set: broth microdilution MIC (CLSI M07-A9), resazurin. In kind it is cell-based. The settings on record: 24 h. As to the method:
as §1

In the case of `COc1ccc2sc(SCc3ccc(C(C)C(=O)O)cc3)nc2c1` (stereo not drawn) [Compound 6h, 2-(4-(((5-Methoxybenzo[d]thiazol-2-yl)thio)methyl)phenyl)propanoic acid], the MIC (commonly the lowest concentration that inhibits growth of the organism) stood at 100 µg/mL (≈ 278 µM) in data set [1]; 50 µg/mL (≈ 139 µM) in data set [2]; 50 µg/mL (≈ 139 µM) in data set [3]; 12.5 µg/mL (≈ 34.8 µM) in data set [4]; 6.25 µg/mL (≈ 17.4 µM) in data set [5]; 12.5 µg/mL (≈ 34.8 µM) in data set [6]. For the same compound, the MIC in data set [7] was determined as 12.5 µg/mL (≈ 34.8 µM); in [8], 6.25 µg/mL (≈ 17.4 µM). For the same compound, the “Vmax value of the competitive inhibition” value at COX-1 was 0.830 ± 0.011 nmol/min/mg protein. In addition, the mode of inhibition entry at COX-1 is “competitive”. Further, on COX-1, the Ki – broadly, a dissociation constant, usually derived from enzyme kinetics or from competition with a known ligand – stood at 2.07 µM. Also, the “MIC Kp” value in data set [9] was 6.25 µg/mL (≈ 17.4 µM).

Turning to `COc1ccc2[nH]c(SCc3ccc(C(C)C(=O)O)cc3)nc2c1` (stereo not drawn) [Compound 6l, 2-(4-(((5-Methoxy-1H-benzo[d]imidazol-2-yl)thio)methyl)phenyl)propanoic acid], the MIC in [1] is 50 µg/mL (≈ 146 µM); in data set [2] it was 50 µg/mL (≈ 146 µM); in data set [3] it was 50 µg/mL (≈ 146 µM); in data set [4] it was 12.5 µg/mL (≈ 36.5 µM); in data set [5] it was 6.25 µg/mL (≈ 18.3 µM); in data set [6], 12.5 µg/mL (≈ 36.5 µM). The MIC in data set [7] amounted to 12.5 µg/mL (≈ 36.5 µM); in data set [8], 6.25 µg/mL (≈ 18.3 µM). The “Vmax value of the competitive inhibition” value at COX-1 turned out to be 0.669 ± 0.003 nmol/min/mg protein. Also, on COX-1, the mode of inhibition entry was “competitive”. Moreover, the Ki on COX-1 worked out at 1.7 µM. In addition, in data set [9], the “MIC Kp” value is 6.25 µg/mL (≈ 18.3 µM).
